Laboratory results taken from patent US20060029544A1, “Receptor-binding cyclic peptides and methods of use” (The Regents of the University of California Office of …, priority 2004, published 2006).

Tests used:
[1] = target: T1, α5β1 integrin (Homo sapiens, UniProt P05556+P08648); experiment: ELISA: soluble α5β1-hFc binding to immobilized 50 kDa fibronectin fragment in the presence of RGD peptides; conditions: 20 μM peptide
T1 construct: chimeras comprising the extracellular domain of αvβ3, αvβ5, α5β1, and αIIbβ3 linked to the Fc domain of either mouse IgG; purchased Celltech plc (supplied, no catalogue number)
Text: (§1) Four different soluble integrins were supplied by Celltech plc. Soluble forms of αvβ3, αvβ5, α5β1, and αIIbβ3 integrin were generated by constructing chimeras comprising the extracellular domain of αvβ3, αvβ5, α5β1, and αIIbβ3 linked to the Fc domain of either mouse IgG (αvβ3-mFc, αvβ5-mFc, and αIIbβ3-mFc) or human IgG (α5β1-hFc) as described by Stephens et al., Cell Adhes. Commun., 7:377-390 (2000) and Coe et al., J. Biol. Chem., 276:35854-35866 (2001). Since the four soluble integrin chimeras were supplied either as purified proteins (αvβ3-mFc and α5β1-hFc) or as unpurified hybridoma supernatants (αIIbβ3-mFc and αvβ5-mFc), it was necessary to use two types of ELISAs. […] In one type of ELISA (FIGS. 2A and 2B), the immobilized component is a 50 kDa fragment of fibronectin. In the second type of ELISA (FIGS. 2C and 2D), the immobilized component is a goat anti-mFc antibody that is used to capture chimeric proteins so that the RGD binding site of the integrin is maximally exposed. Each three-sided box in FIG. 2 represents a single well of a 96-well plate, and the components are listed in the sequence of their addition to the assay. The immobilized component at the bottom of the well is bound to the well by electrostatic interactions.
To analyze the affinity and selectively of RGD peptides for αvβ3 and α5β1, 96-well ELISA plates were coated with 100 μl of a 5 μg/ml of the 50 kDa fragment of fibronectin in PBS per well and left overnight at 4° C. The plates were washed with PBS using a Denley Wellwash 4 Mk 2. Washing was repeated twice with a 400 μl wash per well. 200 μ/well of blocking buffer (i.e., to prevent non-specific binding of proteins) was then added for 1 hour followed by a repeat washing with PBS. RGD peptides were then added at a maximum concentration of 200 μM and a preliminary screen was performed at three concentrations, 200,20, and 2 μM. 100 μl of an RGD peptide was added to each well and each assay was performed in triplicate. Purified soluble αvβ3-mFc or purified α5β1-hFc was diluted to 2 μg/ml and 15 ng/ml, respectively, in conjugate buffer and 100 μl was added to each well. The plates were incubated for 2 hours with shaking using a Luckham R100 Rotatest at approximately 150 rpm. After incubation, the plates were washed with PBS as previously described and a labeled antibody was added. For the αvβ3 assay, a horseradish peroxidase (HRP)-labeled F(ab′)2 fragment of goat anti-mouse IgG Fc was diluted 1:2000 in conjugate buffer and 100 μl was added to each well. For the α5β1 assay, an HRP-labeled F(ab′)2 fragment of goat anti-human IgG Fc was diluted 1:2000 in conjugate buffer and 100 μl was added to each well. Plates were incubated for 30 minutes with shaking followed by 2 washes with PBS. 100 μl of TMB substrate was added to each well and plates were shaken during a 10 minute color development. Plates were read using a plate spectrophotometer at 630 nm.
Two negative and two positive controls were used in both types of ELISAs. For example, the negative controls were wells that contained 50 μl of an active control peptide, integrin, and biotinylated ligand or 50 μl of the active control peptide and 50 μl of buffer. These negative control wells typically develop little to no color. […] These wells typically develop the maximum amount of color.
(§2) FIGS. 3-6 illustrate the percent binding of the vitronectin, fibronectin, or fibrinogen ligand to αvβ5, α5β1, αIIbβ3, or αvβ3 integrin in the presence of RGD peptides (i.e., linear (A), cyclic (B), or 4-[^19F]-fluorobenzoyl cyclic (C)) at different concentrations, with 100% maximum signal being the signal obtained in the absence of the peptide.

[2] = target: T2, αvβ3 integrin (Homo sapiens, UniProt P05106+P06756); experiment: ELISA: soluble αvβ3-mFc binding to immobilized 50 kDa fibronectin fragment in the presence of RGD peptides; conditions: 2 μM peptide
T2 construct: chimeras comprising the extracellular domain of αvβ3, αvβ5, α5β1, and αIIbβ3 linked to the Fc domain of either mouse IgG; purchased Celltech plc (supplied, no catalogue number)
Text: as §1
The plates were washed with PBS using a Denley Wellwash 4 Mk 2. Washing was repeated twice with a 400 μl wash per well. […] Plates were read using a plate spectrophotometer at 630 nm.
Two negative and two positive controls were used in both types of ELISAs.
as §2

[3] = system: VUP melanoma cell line; experiment: Adhesion assay: [51Cr]-VUP cells to vitronectin; assay type: cell-based; conditions: 20 μM peptide
Procedure: (§3) RGD peptides were plated at a maximum concentration of 200 μM and a minimum concentration of 2 nM. For each RGD peptide sequence, linear peptides (A), cyclic peptides (B), and 4-[^19F]-fluorobenzoyl cyclic peptides (C) were assayed. Each RGD peptide concentration was performed in quadruplicate and each experiment was repeated twice.
(§4) Plastic 96-well plates (Falcon 3912; Becton Dickinson) were coated with 50 μl substrate (10 μg/ml laminin or 5 μg/ml vitronectin). The plates were incubated at 37° C. in an 8% CO2 atmosphere for 1 hour. Unbound protein was flicked off and the plates were washed with phosphate buffered saline (PBS) and blocked with bovine serum albumin (0.1% w/v BSA)/PBS/0.1% sodium azide) for 1 hour. The plates were then washed with PBS, placed on a bed of ice and 25 μl of peptide was added to the wells.
Sodium [^51Cr] chromate was purchased from Amersham International, UK. […]
25 μl (about 10,000 cells) were added to each quadruplicate well and the plates incubated at 37° C. in an 8% CO2 atmosphere for 1 hour. […] The radioactivity associated with each well was determined in a gamma counter (1261 Multigamma; Wallac, Sweden). Quadruplicate 25 μl samples of labeled cells were counted as 100% input values. To determine non-specific binding, the ability of cells to bind BSA-coated wells was also assessed. […]
(§5) The results were calculated as follows: [formula] […]

[4] = system: VUP melanoma cell line; experiment: Adhesion assay: [51Cr]-VUP cells to laminin; assay type: cell-based; conditions: highest concentration (200 μM)
Procedure: as §3, §4
Sodium [^51Cr] chromate was purchased from Amersham International, UK. The solution was made isotonic by the addition of 110 μl 10× Hanks buffered salt solution. 100 μl of this solution (3.7 MBq) was added to 5-10×10^6 cells in 500 μl of serum-containing growth medium. The suspension was incubated at 37° C. for 45 minutes with regular agitation to resuspend the cells. The cells were then washed and spun 3 times with serum-free E4 medium to remove any free [^51Cr]chromium. A trypan blue viability count was performed and the cells were diluted to the necessary volume in serum-free E4 medium (4×10^5 cells/ml).
25 μl (about 10,000 cells) were added to each quadruplicate well and the plates incubated at 37° C. in an 8% CO2 atmosphere for 1 hour. Unbound cells were flicked off and the plates were washed twice with PBS/BSA containing 1 mM CaCl2 and 0.5 mM MgCl2. The plates were dabbed dry and cut into individual wells. The radioactivity associated with each well was determined in a gamma counter (1261 Multigamma; Wallac, Sweden). Quadruplicate 25 μl samples of labeled cells were counted as 100% input values. To determine non-specific binding, the ability of cells to bind BSA-coated wells was also assessed. […]
as §5

T1 sequence (P08648 42-995 limits assumed): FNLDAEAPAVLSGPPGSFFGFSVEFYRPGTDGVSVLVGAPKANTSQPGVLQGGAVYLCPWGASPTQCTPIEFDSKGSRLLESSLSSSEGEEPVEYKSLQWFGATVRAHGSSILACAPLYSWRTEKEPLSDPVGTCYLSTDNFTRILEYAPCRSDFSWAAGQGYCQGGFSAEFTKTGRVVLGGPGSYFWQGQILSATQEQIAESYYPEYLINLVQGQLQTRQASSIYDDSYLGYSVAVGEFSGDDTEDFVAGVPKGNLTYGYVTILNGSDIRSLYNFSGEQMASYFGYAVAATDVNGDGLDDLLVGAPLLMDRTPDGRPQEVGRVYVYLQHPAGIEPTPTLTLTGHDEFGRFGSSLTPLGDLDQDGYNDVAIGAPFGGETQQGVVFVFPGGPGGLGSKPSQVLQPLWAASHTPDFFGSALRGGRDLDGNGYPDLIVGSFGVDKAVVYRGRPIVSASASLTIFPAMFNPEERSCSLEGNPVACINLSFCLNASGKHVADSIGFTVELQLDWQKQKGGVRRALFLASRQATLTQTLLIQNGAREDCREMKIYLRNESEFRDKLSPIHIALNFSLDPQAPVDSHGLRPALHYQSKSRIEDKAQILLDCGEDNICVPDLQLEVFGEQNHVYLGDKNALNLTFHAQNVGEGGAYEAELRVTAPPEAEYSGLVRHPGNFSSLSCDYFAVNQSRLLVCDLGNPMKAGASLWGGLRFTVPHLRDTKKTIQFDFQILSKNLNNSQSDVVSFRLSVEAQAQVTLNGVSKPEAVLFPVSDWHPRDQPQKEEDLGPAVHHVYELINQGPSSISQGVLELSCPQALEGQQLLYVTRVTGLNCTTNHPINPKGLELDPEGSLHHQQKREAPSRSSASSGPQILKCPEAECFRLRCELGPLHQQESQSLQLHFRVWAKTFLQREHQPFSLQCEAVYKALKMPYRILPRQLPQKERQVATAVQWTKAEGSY
T1 sequence (P05556 21-728 limits assumed): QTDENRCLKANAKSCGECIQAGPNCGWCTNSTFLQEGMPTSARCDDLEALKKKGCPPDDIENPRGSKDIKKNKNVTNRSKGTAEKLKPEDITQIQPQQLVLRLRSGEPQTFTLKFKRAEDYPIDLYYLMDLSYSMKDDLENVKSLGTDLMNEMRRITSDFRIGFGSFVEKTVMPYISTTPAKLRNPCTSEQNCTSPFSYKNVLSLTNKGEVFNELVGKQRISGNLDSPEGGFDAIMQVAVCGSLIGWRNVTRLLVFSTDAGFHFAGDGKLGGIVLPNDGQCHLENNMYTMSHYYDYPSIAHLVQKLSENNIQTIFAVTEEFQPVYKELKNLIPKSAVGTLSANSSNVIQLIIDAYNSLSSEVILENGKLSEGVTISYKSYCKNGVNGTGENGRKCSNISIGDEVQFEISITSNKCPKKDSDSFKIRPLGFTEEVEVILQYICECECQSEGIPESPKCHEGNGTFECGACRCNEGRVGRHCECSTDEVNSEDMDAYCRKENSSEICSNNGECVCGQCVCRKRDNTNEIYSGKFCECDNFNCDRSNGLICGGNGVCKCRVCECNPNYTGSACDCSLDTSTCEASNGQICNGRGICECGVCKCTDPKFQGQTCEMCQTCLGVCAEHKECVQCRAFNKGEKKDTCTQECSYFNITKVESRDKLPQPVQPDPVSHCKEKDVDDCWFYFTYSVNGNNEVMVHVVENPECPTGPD
T2 sequence (P06756 31-992 limits assumed): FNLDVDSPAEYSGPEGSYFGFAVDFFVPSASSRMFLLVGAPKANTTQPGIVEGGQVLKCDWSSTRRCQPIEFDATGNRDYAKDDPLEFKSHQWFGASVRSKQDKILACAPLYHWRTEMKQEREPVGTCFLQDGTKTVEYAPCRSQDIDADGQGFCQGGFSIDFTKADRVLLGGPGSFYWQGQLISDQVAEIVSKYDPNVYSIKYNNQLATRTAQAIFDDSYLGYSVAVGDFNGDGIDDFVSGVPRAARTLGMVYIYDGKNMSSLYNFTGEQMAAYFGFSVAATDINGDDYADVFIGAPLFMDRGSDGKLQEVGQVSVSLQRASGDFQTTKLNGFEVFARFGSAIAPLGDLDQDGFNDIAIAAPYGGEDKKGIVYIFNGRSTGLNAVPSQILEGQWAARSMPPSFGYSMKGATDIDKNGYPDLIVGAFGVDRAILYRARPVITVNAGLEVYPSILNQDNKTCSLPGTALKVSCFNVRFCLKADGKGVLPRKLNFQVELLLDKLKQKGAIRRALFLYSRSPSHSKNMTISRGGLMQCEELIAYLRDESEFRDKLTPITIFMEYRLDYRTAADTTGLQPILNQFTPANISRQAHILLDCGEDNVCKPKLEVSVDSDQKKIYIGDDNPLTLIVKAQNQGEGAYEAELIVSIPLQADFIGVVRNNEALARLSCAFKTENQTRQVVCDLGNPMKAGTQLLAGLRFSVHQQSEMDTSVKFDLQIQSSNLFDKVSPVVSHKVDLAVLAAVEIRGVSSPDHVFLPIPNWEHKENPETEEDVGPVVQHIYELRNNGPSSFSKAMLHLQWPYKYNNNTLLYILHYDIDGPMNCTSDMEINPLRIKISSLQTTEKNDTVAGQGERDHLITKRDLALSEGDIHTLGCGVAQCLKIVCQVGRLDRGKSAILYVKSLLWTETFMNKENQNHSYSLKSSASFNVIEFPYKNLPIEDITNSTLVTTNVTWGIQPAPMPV
T2 sequence (P05106 27-718 limits assumed): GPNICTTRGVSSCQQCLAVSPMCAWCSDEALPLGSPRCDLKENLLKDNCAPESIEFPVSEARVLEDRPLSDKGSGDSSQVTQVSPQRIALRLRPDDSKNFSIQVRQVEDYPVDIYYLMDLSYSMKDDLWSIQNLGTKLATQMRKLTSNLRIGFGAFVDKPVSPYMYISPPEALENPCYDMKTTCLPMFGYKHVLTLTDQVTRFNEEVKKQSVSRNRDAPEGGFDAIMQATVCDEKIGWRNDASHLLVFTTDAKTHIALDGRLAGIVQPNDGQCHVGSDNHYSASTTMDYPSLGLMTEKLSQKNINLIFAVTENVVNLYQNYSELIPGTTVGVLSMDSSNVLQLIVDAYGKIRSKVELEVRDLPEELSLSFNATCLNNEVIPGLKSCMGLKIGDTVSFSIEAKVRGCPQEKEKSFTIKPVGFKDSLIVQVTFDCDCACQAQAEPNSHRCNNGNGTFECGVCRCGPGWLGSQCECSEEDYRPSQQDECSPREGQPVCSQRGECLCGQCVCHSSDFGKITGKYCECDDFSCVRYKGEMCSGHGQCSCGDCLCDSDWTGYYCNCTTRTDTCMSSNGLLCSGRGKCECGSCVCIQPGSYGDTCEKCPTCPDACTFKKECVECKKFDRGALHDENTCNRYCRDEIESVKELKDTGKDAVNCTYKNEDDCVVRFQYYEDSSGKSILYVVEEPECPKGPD

RGDY(OMe)K [B7]
fibronectin binding to α5β1, % of the maximum signal [1]: 48.4% | fibronectin binding to αvβ3, % of the maximum signal [2]: 6.6% | adhesion of [51Cr]-VUP cells to vitronectin, normalized to absence of peptide (100%) [3]: 44.16%±1.71% | adhesion of [51Cr]-VUP cells to laminin, normalized to absence of peptide (100%) [4]: 46.89%±1.45%
